According to patent US10575520B2, “Cyclohexylamine-based compounds and uses thereof” (BOARD OF SUPERVISORS OF LOUISIANA STATE UNIVERSITY AND …, priority 2016, dated 2020):
Counter-ions that a name gives are not always drawn.

Legend:
[1] = system: worker termites (C. formosanus) antennae; assay: Termite antenna ablative shortening (antenna length quantification); assay type: in vivo, Coptotermes formosanus; conditions: 640.8 μg/mm^3, 14 day assay
Procedure: Fifty worker termites, from collection group B, were placed in a 60×15 mm polystyrene petri dish with 42.5 mm filter paper treated with 10 mg of 2-phospho-myo-inositol (640.8 μg/mm^3). Daily for 14 day three randomly selected termites were removed, euthanized with 5 μL of ethanol and their antennae were photographed, after which, GSA image analyzer was used to quantify the length of the termite antennae (Bansemer and Scheel 2010). Antenna length data were subjected to ANOVA followed by Tukey's Studentized range test (Institute 1989). All data were judged at α=0.05. All experiments were performed in triplicate.

[2] = system: Pseudotrichonyrnpha grassii Koidzumi; assay: Protozoan counting, P. grassii; assay type: in vivo; conditions: 640.8 μg/mm^3, 14 day assay
Procedure: (§1) The effect of 2-phospho-myo-inositol dicyclohexylamine salt on C. formosanus hindgut protozoan populations was examined as follows: Ten mg of 2-phospho-myo-inositol were dissolved in 200 μL of distilled water and applied to filter paper, in a 60×15 mm plastic Petri dish, (640.8 μg/mm^3). Control filter paper received 200 μL of distilled water. With 75 worker termites per dish, collection group A were used. Pseudotrichonyrnpha grassii Koidzumi, Holornastigotoides hartmanni Koidzumi and Spirotrichonympha leidyi Koidzumi were counted daily for 2 week as described in Mannesmann, R., Z. Angew. Entomol. 72: 116-128 (1972); and modified by Maiastrello, L., et al., Pest Manag. Sci. 59: 58-68 (2002). Hindguts were removed from the posterior ends of three workers and gently macerated in 40 μL saline solution containing neutral red dye (0.5 mL of 1% aqueous neutral red solution dissolved in 10 mL saline solution). The number of each protozoan species was determined using a hemocytometer (Bright-line Improved Neubauer, Hausser Scientific, Horsham, Pa.) under a light microscope. The population of each protozoan species per hindgut (XF) was calculated as: XF=(G×n)/(V×3), where G=volume (μL) of solution hindguts dissected in; n=mean of two counts within hemocytometer; V=volume (μL) of area counted. Mean (±SE) XF values calculated from two replicates were used for graphical comparison of data. […]

[3] = system: Holornastigotoides hartmanni Koidzumi; assay: Protozoan counting, H. hartmanni; assay type: in vivo; conditions: 640.8 μg/mm^3, 14 day assay
Procedure: as §1

[4] = system: worker C. formosanus termites; assay: Dose-response feeding assay (termite mortality on treated filter paper)
From the text: Worker C. formosanus were collected from Brechtel Park, New Orleans, La. by methods known in the art. Bait crates (open-mesh plastic containers) filled with southern yellow pine or spruce-pine-fir sapwood were arranged into a lattice and buried near a C. formosanus infested tree and collected after 3 to 9 weeks. Termite-containing crates were held in 250-liter plastic garbage cans kept at room temperature (26-28 C) and 70-80% relative humidity with the original food source. Termites were collected from New Orleans on 13 Jun. 2006 (collection group A); 9 Aug. 2006 (collection group B); 1 Mar. 2008 (collection group C); 9 May 2008 (collection group D); 20 May 2008 (collection group E); 20 Mar. 2009 (collection group F); 29 May 2009 (collection group G) and 11 May 2010 (collection group H); 18 Aug. 2012 (collection group I); May 2014 (collection group J); August 2014 (collection group K). The termite collection procedure was tapping infested wood sticks into clean plastic containers where termites were collected on moistened paper towels.
(§2) 2-phospho-myo-inositol (dicyclohexylamine salt), glycerol-3-phosphate (dicyclohexylamine salt), dicyclohexylamine phosphate, monocyclohexylamine phosphate, and neat cyclohexylamine were screened for termiticide activity as follows: test compounds were applied to 42.5 mm×3 μm filter papers, in 60×15 mm plastic Petri dishes, in a solution of 1 mg of test compound per 10 μL of distilled water. Doses of 2.5 mg (160.2 μg/mm^3 of filter paper), 5 mg (320.4 μg/mm^3) 10 mg (640.8 μg/mm^3), and 20 mg (1281.7 μg/mm^3) of 2-phospho-myo-inositol were examined. Following filter paper treatment distilled water was added to bring the total volume applied to the filter papers to 300 μL, using 300 μL of distilled water as control. Cyclohexylamine was applied to the paper diluted in amounts of 300 μL, in concentrations ranging from 0.626 to 10.2 μg/mm^3. To prevent desiccation, approximately 50 μL of distilled water was applied to filter paper throughout the trials every third day, or upon observing that a filter paper disc was relatively dry. To test whether termite mortality was induced by consumption of the cyclohexylamine-treated paper, or whether vapor presence of cyclohexylamine was responsible for the toxicity, we compared addition of cyclohexylamine to both paper and fiberglass filters—the latter of which they will not consume. In addition to pure cyclohexylamine, dicyclohexylamine phosphate and monocyclohexylamine phosphate were tested for toxicity. Dicyclohexylamine phosphate was tested in concentrations ranging from 0.348 to 348 μg/mm^3, and monocyclohexylamine phosphate was tested in concentrations ranging from 2.28 to 228 μg/mm^3. Replicates of twenty worker termites were incubated in the dark in a parafilm-sealed Petri dish at room temperature for 2 weeks. Termite mortality was recorded daily in triplicate experiments. An analysis of variance (ANOVA) (SAS ANOVA procedure) followed by Tukey's Studentized range test was used to evaluate statistical differences among groups (Institute 1989). All mortality data were judged at a=0.05.
(§3) Termites from collection group B were used in the 2-Phospho-Myo-Inositol dose mortality assay. Termites from collection groups C and D were used in both the dicyclohexylamine-2-phophoinositol, and dicylclohexyalmine-glycerol-3-phosphate dose mortality assay. Termites from collection group I were used in cyclohexylamine dose mortality assays. Termites from collection […] in the dicyclohexylamine phosphate and neat cyclohexylamine volatility dose mortality assays. Termites from collection group K were used in the monocyclohexylamine phosphate dose mortality assay.

[5] = system: Spirotrichonympha leidyi Koidzumi; assay: Protozoan counting, S. leidyi; assay type: in vivo; conditions: 640.8 μg/mm^3, 14 day assay
Procedure: as §1

[6] = system: C. formosanus hindgut protozoan populations; assay: Protozoan counting, total hindgut protozoa; assay type: in vivo, Coptotermes formosanus; conditions: 640.8 μg/mm^3, 14 day assay
Procedure: as §1

[7] = system: worker C. formosanus termites; assay: Cellulose (filter paper) consumption; assay type: in vivo, Coptotermes formosanus
Procedure: In dose mortality experiments where paper consumption data are shown, filter papers were weighed in ambient humidity prior to sugar application. After 14 days termites were removed from the dishes and the filter paper from each replicate was cleaned, washed of residual carbohydrate and dried at 100 C for 24 h. After drying and humidity equilibration for 24 h, filter papers were reweighed for determination of paper consumption. […] All consumption data were judged at a=0.05.

[8] = system: worker C. formosanus termites; assay: Cyclohexylamine volatile effects (cellulose paper vs fiberglass filter mortality); conditions: 600 μg
Procedure: as §2, §3

O=P(O)(O)OC1[C@@H](O)[C@H](O)C(O)[C@H](O)[C@H]1O (stereo partly shown) [2-Phospho-Myo-Inositol, 2-phospho-myo-inositol (di-cyclohexylamine salt)]
termite antennae length versus control [1]: significantly reduced termite antennae of day five and six and eight through 14
P. grassii populations versus control [2]: significantly lowered on day one, five, eight, nine, 10 and 11
H. hartmanni populations versus control [3]: significantly reduced on day one, two, five, eight, nine, 10, 11 and 14
mortality versus control group ([4]; 160.2 μg/mm^3 filter paper, 14 day assay): did not result in mortality significantly different from the control group
mortality versus control group ([4]; 320.4 μg/mm^3 filter paper, 14 day assay): did not result in mortality significantly different from the control group
mortality versus control group ([4]; 640.8 μg/mm^3 filter paper, 14 day assay): did not result in mortality significantly different from the control group
day on which mortality became significant ([4]; 1281.7 μg/mm^3): eight
mortality ([4]; 1281.7 μg/mm^3, day 14): 98%
mortality ([4]; 1281.7 μg/mm^3, day eight): Forty three
S. leidyi populations versus control [5]: significantly lower than controls on day nine and 11
total protozoan populations versus control [6]: reduced total protozoan populations day four and thereafter

C1CCC(NC2CCCCC2)CC1.O=P(O)(O)O [Dicyclohexylamine Phosphate, Dicyclohexylamine phosphate]
day on which mortality became significantly higher ([4]; 0.348 μg/mm^3): three
mortality ([4]; 0.348 μg/mm^3, day 14): 28%
mortality versus control ([4]; 1.22 μg/mm^3): The two highest dosage groups, 4.90 and 9.80 μg/mm^3, displayed mortality significantly different than the control
mortality versus control ([4]; 2.45 μg/mm^3): The two highest dosage groups, 4.90 and 9.80 μg/mm^3, displayed mortality significantly different than the control
day on which mortality became significantly different ([4]; 4.90 μg/mm^3): three
mortality ([4]; 4.90 μg/mm^3, day 14): 38%
day on which mortality became significantly different ([4]; 9.8 μg/mm^3): four
mortality ([4]; 9.8 μg/mm^3, day 14): 36%
mortality versus control group ([4]; 17.22 μg/mm^3): significantly different than the control group
mortality versus control group ([4]; 34.44 μg/mm^3): significantly different than the control group
day on which mortality became significantly different ([4]; 68.88 μg/mm^3): five
mortality ([4]; 68.88 μg/mm^3, day 14): 45%
mortality ([4]; 348 μg/mm^3, first day): 100%

NC1CCCCC1.O=P(O)(O)O [Monocyclohexylamine Phosphate, Monocyclohexylamine phosphate]
mortality versus control ([4]; 2.28 μg/mm^3): not significantly different from the control
mortality versus control ([4]; 22.8 μg/mm^3): not significantly different from the control
day on which mortality became significantly different ([4]; 228 μg/mm^3): 10 days
mortality ([4]; 228 μg/mm^3, day 10): 38%
mortality ([4]; 228 μg/mm^3, day 14): 100%

NC1CCCCC1 [Neat Cyclohexylamine, cyclohexylamine]
consumption rate per termite versus control ([7]; 0.626 μg/mm^3, 14 days): did not result in a consumption rate per termite significantly different from the control group
consumption rate (per surviving termites) versus control ([7]; 0.822 μg/mm^3, 14 days): significantly lower than the control group
consumption rate (per surviving termites) versus control ([7]; 1.253 μg/mm^3, 14 days): significantly lower than the control group
consumption rate (per surviving termites) versus control ([7]; 2.510 μg/mm^3, 14 days): significantly lower than the control group
mortality versus control ([4]; 0.62 μg/mm^3): only the highest dosage group, 2.51 μg/mm^3, displayed significantly different mortality
mortality versus control ([4]; 0.82 μg/mm^3): only the highest dosage group, 2.51 μg/mm^3, displayed significantly different mortality
mortality versus control ([4]; 1.0 μg/mm^3 (lowest dosage of 1.0, 1.7, 2.4)): Only the two highest dosage groups displayed mortality significantly different from the control
mortality versus control ([4]; 1.25 μg/mm^3): only the highest dosage group, 2.51 μg/mm^3, displayed significantly different mortality
day on which mortality became significant ([4]; 1.7 μg/mm^3): eight
mortality ([4]; 1.7 μg/mm^3, day 14): 33%
day on which mortality became significant ([4]; 2.4 μg/mm^3): five
mortality ([4]; 2.4 μg/mm^3, day 14): 41%
day on which mortality became significantly different ([4]; 2.51 μg/mm^3): six
mortality ([4]; 2.51 μg/mm^3, day 14): 63%
mortality ([4]; 2.51 μg/mm^3, day six): 16%
mortality ([4]; 3.39 μg/mm^3, day three): 100%
mortality ([4]; 5.08 μg/mm^3, within one to three days): 100%
mortality ([4]; 10.2 μg/mm^3, day one): 100%
day on which mortality became significantly different ([8]; treatment of cellulose): eight
mortality ([8]; treatment of cellulose, day 14): 45%
mortality ([8]; treatment of cellulose, day eight): 25%
mortality versus corresponding control group ([8]; treatment of fiberglass): did not result in mortality significantly different than that of the corresponding control group

C1CCC(NC2CCCCC2)CC1.O=P(O)(O)OCC(O)CO [glycerol-3-phosphate (dicyclohexylamine salt)]
day on which mortality became significant ([4]; higher dosage group, 640.8 μg/mm^3): 5 days
mortality ([4]; higher dosage group, 640.8 μg/mm^3, day 12): 98%
day on which mortality became significant ([4]; lower dosage group, 320.4 μg/mm^3): 12 days
mortality ([4]; lower dosage group, 320.4 μg/mm^3, day 14): 71%
